Changes are numbered by the printed parent chain.
Columns and labels:
[1] = biological target: T1, BrlR (Pseudomonas aeruginosa, UniProt Q9HUT5); conditions: ref 1 (Chambers et al., 2014) of response letter; cited from earlier work
T1 construct: His6-SUMO (N, cleaved yes); made in house; host or cells: E. coli BL21 DE3

[2] = biological target: T2, BrlR-C2E mut1 (R31A/D35A/Y40A/Y270A) (Pseudomonas aeruginosa, UniProt Q9HUT5, D35A/R31A/Y270A/Y40A); assay: FP binding assay, BrlR-C2E mut1
T2 construct: His6-SUMO (N, cleaved yes); made in house; host or cells: E. coli BL21 DE3
T2 sequence (Q9HUT5 whole entry R31A/D35A/Y40A/Y270A): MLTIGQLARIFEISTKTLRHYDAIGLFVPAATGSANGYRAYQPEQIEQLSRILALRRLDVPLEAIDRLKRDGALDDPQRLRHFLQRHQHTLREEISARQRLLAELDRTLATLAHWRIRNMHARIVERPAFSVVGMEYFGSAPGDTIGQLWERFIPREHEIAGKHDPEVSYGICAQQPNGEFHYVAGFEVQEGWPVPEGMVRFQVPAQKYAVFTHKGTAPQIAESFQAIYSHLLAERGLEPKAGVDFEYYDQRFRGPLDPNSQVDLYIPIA
Experimental: (§1) F-c-di-GMP and F-c-di-AMP both contain a fluorophore at one of the 2′-ribose hydroxyls of c-di-GMP and c-di-AMP, respectively (Fig. 2f). To measure the binding of c-di-GMP and c-di-AMP to BrlR variants, 1 nM F-c-di-GMP or F-c-di-AMP was incubated with increasing amounts of indicated BrlR WT, BrlR mutation, or BrlR-C in reaction buffer (25 mM HEPES, 100 mM NaCl, pH 7.5) at 25 °C for 20 min. 1 nM fluorescein was incubated with BrlR WT in the same reaction buffer at 25 °C. FP measurements were conducted on a Synergy 4 Microplate Reader (BioTek) at 25 °C. All experiments were performed in triplicate. The curves were fitted to deduce binding affinities by GraphPad Prism 5.
(§2) BrlR–c-di-GMPs interactions in two separate c-di-GMP binding sites
(§3) In the first binding site, c-di-GMP is half accommodated by the antiparallel β-sheet and two residues (M1 and D35). In detail, the backbone amide protons of the first M1 residue form a hydrogen bond (H-bond) with the phosphate oxygen atom of c-di-GMP, and the side chain of R31 forms two H-bonds with the Gua1 base. The residue D35 also forms an H-bond with the Gua1 base. The aromatic ring of Y40 interacts with the Gua1 base through a hydrophobic π-π interaction. In addition, the hydroxyl group of the Y270 side chain from another subunit interacts with the phosphate 2 of c-di-GMP via an H-bond (Fig. 2d). […]

[3] = biological target: T3, BrlR-C2E mut2 (R67A/R86A) (Pseudomonas aeruginosa, UniProt Q9HUT5, R67A/R86A); assay: FP binding assay, BrlR-C2E mut2
T3 construct: His6-SUMO (N, cleaved yes); made in house; host or cells: E. coli BL21 DE3
T3 sequence (Q9HUT5 whole entry R67A/R86A): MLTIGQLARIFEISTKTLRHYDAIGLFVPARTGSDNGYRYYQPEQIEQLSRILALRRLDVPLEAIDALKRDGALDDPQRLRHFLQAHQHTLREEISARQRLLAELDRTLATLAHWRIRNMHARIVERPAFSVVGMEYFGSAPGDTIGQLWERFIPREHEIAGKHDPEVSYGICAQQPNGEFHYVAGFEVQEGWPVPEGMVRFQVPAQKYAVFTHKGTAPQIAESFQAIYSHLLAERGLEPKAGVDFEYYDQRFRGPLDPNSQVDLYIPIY
Experimental: as §1, §2, §3

[4] = biological target: T1, BrlR; assay: Fluorescence polarization (FP) binding assay, wild-type BrlR; conditions: 1 nM fluorescent ligand, 25 °C
From the text: The most striking feature of the BrlR–c-di-GMP complex is the c-di-GMP-binding mode. The DNA-binding domain contains two separate c-di-GMP-binding sites, and shares a mutually intercalated c-di-GMP dimer in a stacking conformation with a crystallographic symmetry related binding site (Fig. 2a–c). […] The interactions stabilizing the c-di-GMPs are different for the two binding sites (Fig. 2d, e, and details are described in Supplementary Note 1). […] This structural feature allows us to perform fluorescence polarization (FP)-based binding assays[19],[23],[24] by using a fluoresceinated c-di-GMP analog, 2′-Fluo-AHC-c-di-GMP (F-c-di-GMP), containing a fluorophore attached to one of the 2′-ribose hydroxyls (Fig. 2f).
as §1

[5] = biological target: T4, BrlR-C (Pseudomonas aeruginosa, UniProt Q9HUT5); assay: FP competition experiment, BrlR-C; format: binding; conditions: 550 μM BrlR-C, 1 nM F-c-di-GMP
T4 construct: His6 (cleaved yes); made in house; host or cells: E. coli (same protocol as BrlR, induction at 18 °C)
Experimental: Supplementary Figure 11: FP analyses of F-c-di-GMP binding to BrlR-C. (a) Isotherms of BrlR-C binding to F-c-di-GMP. The binding experiment was carried out at 25 °C in a buffer containing 150 mM NaCl, 25 mM Tris·HCl (pH 7.5), and 1 nM F-c-di-GMP. Increasing concentrations of BrlR-C were titrated into the reaction mixture to obtain the binding isotherms. (b) Fluorescence polarization competition experiment of BrlR-C. As a control, 550 μM BrlR-C was added to the reaction tube containing 1 nM F-c-di-GMP, and different competitors were respectively added in the solution and the values of millipolarization were recorded.
(1 picture or pasted object on this page, not shown here)

[6] = biological target: T5, BrlR-C domain (Pseudomonas aeruginosa, UniProt Q9HUT5); assay: Native gel staining with EB; format: binding
T5 construct: His6 (cleaved yes); made in house; host or cells: E. coli (same protocol as BrlR, induction at 18 °C)
From the text: Fig. 5 The BrlR-C domain can bind to diverse toxic compounds with two adjacent binding pockets. a Structural superpositions of BrlR-C and RH6G-bound SAV2435 (PDB code: 5KAU). The residues in contact with the ligand are shown as stick models and are labeled. Electron density (2Fo - Fc map) for imidazole (blue mesh) binding to the BrlR–c-di-GMP complex is contoured at the 1σ level. b The chemical structures of toxic compounds. c FP analyses of the fluorescein binding to BrlR. The binding curves were fit to deduce the binding affinities. d Two μg of BrlR variants were run on the native gel and stained with EB; the scan results are shown in the upper panel. The proteins were visualized by staining with Coomassie blue in the lower panel. e SPR sensorgram and the resulting affinity fit for pyocyanin binding to BrlR. The ligand binding and dissociation phases for all sensorgrams are shown in the upper panel. The concentrations of a pyocyanin are indicated. The binding responses were measured for 4 s before the end of the injection, and the KD values were calculated using the BIAevaluation software in the lower panel. f The monomeric structure of BrlR-C-3A2P complex. 3A2P, PEG and the conserved residues are shown in stick mode. […]
of multidrug inducers in their C-terminal multidrug-binding domains1-3. […]
However, much more dimers than tetramers were detected (Supplementary Fig. 13a). […]

[7] = biological target: T6, BrlR (UniProt Q9HUT5 1-270); assay: EMSA; conditions: protein: recombinant; tags: none (His6-SUMO removed); chain copies: 4; label: 5' FAM on strand 1; blunt
T6 sequence: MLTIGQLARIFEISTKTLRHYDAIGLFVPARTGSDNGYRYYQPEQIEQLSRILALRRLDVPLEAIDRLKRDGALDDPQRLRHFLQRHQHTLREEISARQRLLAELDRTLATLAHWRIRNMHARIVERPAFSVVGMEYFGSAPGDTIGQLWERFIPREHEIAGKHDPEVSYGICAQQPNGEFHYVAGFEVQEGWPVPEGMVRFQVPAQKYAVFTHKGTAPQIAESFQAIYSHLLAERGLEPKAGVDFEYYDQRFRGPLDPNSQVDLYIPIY

[8] = biological target: T7, BrlR C2E mut2 (UniProt Q9HUT5 1-270, R67A;R86A); assay: EMSA; c-di-GMP (increased); conditions: protein: recombinant; tags: none (His6-SUMO removed); chain copies: 2; label: 5' FAM on strand 1; blunt
T7 sequence: T6 sequence with R67A, R86A

[9] = biological target: T8, BrlR C2E mut1 (UniProt Q9HUT5 1-270, R31A;D35A;Y40A;Y270A); assay: EMSA; c-di-GMP (increased); conditions: protein: recombinant; tags: none (His6-SUMO removed); chain copies: 2; label: 5' FAM on strand 1; blunt
T8 sequence: T6 sequence with R31A, D35A, Y40A, Y270A

In the case of `Nc1nc2c(ncn2[C@@H]2O[C@H](COP(=O)(O)OP(=O)(O)OP(=O)(O)O)[C@@H](O)[C@H]2O)c(=O)[nH]1` [GTP], the “effect on binding of c-di-GMP to BrlR” value [1] is listed as “not affected”.

For 2′-fluo-AHC-c-di-AMP [F-c-di-AMP], the Kd [2] was 63.7 ± 5.1 µM, the Kd [3] was 10.3 ± 0.2 µM and the Kd [4] was 12.9 ± 0.7 µM. It also gave a Kd ([4]; listed as 2′-fluo-AHC-c-di-AMP) of 12.9 ± 0.65 µM.

For `CC[n+]1c(-c2ccccc2)c2cc(N)ccc2c2ccc(N)cc21` [EB, ethidium bromide], the “competition with F-c-di-GMP binding to BrlR-C” value [5] was “outcompeted” and the “staining of protein in native gel” value [6] was “readily stained”.

B1: PbrlR 36-bp (dsDNA)
DNA 1: ACCCCTTGACCTTGCCCCAGGGGCAATCCGTAGTCT
DNA 2: AGACTACGGATTGCCCCTGGGGCAAGGTCAAGGGGT
B1: binds [7]; binds [8]; binds [9].
